Molecules are shown by their SMILES.

A short description of this data set: in vitro. The settings on record: human, hela cells, % viability.
Regarding `O=C(CC1CCCCC1)N1CCC(n2nc(C3CC3)ccc2=O)CC1` [CBK284241], the viability (commonly a read-out of living cells in per cent, often relative to untreated cells) at 28.5 h, 10 µM was determined as 88.6%.
The value for `O=C(Cc1cccs1)N1CCC(n2nc(C3CC3)ccc2=O)CC1` [CBK284243] was 78.6%.
Then `CC1CCCN(C(=O)Cn2ncn3c(cc4ccsc43)c2=O)C1` (stereo not drawn) [CBK284245], with 84.5%; and `Cc1cc2c(s1)c1cnn(CC(=O)NC3CC3)c(=O)c1n2C` [CBK284246], with 90.5%; and `Cc1cc2c(s1)c1cnn(CC(=O)OC(C)C)c(=O)c1n2C` [CBK284247], with 102%.
For `Cc1noc(C)c1C(=O)N1CCN(Cc2ccco2)C[C@@H]1C(C)C` [CBK284248], the viability at 28.5 h, 10 µM came out at 93.9%.
The value for `CCC(=O)N1CCC[C@H]1Cn1nc(-c2ccc(F)cc2)ccc1=O` [CBK284253] was 81.1%.
The value for `Cc1cc(C(=O)N2CCN(Cc3ccco3)C[C@@H]2C(C)C)c(C)[nH]1` [CBK284254] was 88.2%; that for `O=C(NC[C@H]1CCCN(C(=O)c2cccs2)C1)c1ccco1` [CBK284261] was 94.6%; that for `COc1cccc(CN2CCN(C(=O)c3ccco3)[C@@H](C)C2)c1` [CBK284267] was 110%.
As for `COc1ccc(NC(=O)[C@@H]2C=CCN2C(=O)C2CC2)cc1` [CBK284277], the viability at 28.5 h, 10 µM was found to be 98.2%.
Then `COc1cccc(C(=O)N2CC=C[C@H]2C(=O)NC2CC2)c1` [CBK284278], with 94.4%; and `O=C(c1cccs1)N1CCC[C@H]1[C@H](O)c1nccs1` [CBK284285], with 92.1%.
The value for `O=C(c1ccco1)N1CCC[C@H]1[C@H](O)c1nccs1` [CBK284286] was 98.5%; that for `CCCC(=O)N1CCC[C@H]1Cn1nc(-c2ccc(F)cc2)ccc1=O` [CBK284288] was 99.5%.
The value for `O=C(c1ccco1)N1CCC[C@H]1[C@H](O)c1nc2ccccc2s1` [CBK284290] was 99%.
For the molecule `O=C(NC1CC1)[C@@H]1C=CCN1S(=O)(=O)c1ccc(F)cc1` [CBK284294], the viability at 28.5 h, 10 µM turned out to be 92.5%.
Take `CC[C@H](Cn1nc(-c2cccs2)ccc1=O)NC(=O)C1CCC1` [CBK284295]: the viability at 28.5 h, 10 µM was 103%.
`CCC(=O)N[C@H](CC)Cn1ncc2ccccc2c1=O` [CBK284303]: the viability at 28.5 h, 10 µM was 77.1%.
The value for `CC[C@H](Cn1ncc2ccccc2c1=O)NC(=O)C(C)(C)C` [CBK284304] was 90.2%.
In the case of `CCn1cc(C(=O)N2CCN(Cc3ccco3)C[C@@H]2C(C)C)cn1` [CBK284307], the viability at 28.5 h, 10 µM turned out to be 97.7%.
For `CC(C)(C)OC(=O)N1CCC[C@@H](C(=O)c2cccs2)C1` [CBK284310], the viability at 28.5 h, 10 µM was found to be 82.1%.
As for `COc1ccc(CNC(=O)[C@H]2C=CCN2C(=O)c2ccco2)cc1` [CBK284321], the viability at 28.5 h, 10 µM was found to be 71.9%.
Take `CC(C)[C@@H](N)Cn1nnc2ccccc21` [CBK284323]: the viability at 28.5 h, 10 µM worked out at 82.7%.
The value for `COc1ccc(C(=O)[C@H]2CCCN(C(=O)c3ccco3)C2)cc1` [CBK284327] was 99.7%; that for `O=C(c1ccc(F)cc1)[C@H]1CCCN(C(=O)c2ccco2)C1` [CBK284328] was 80.7%.
Then `O=C(c1ccccc1F)[C@H]1CCCN(C(=O)c2cc(C3CC3)n[nH]2)C1` [CBK284330], with 80%.
The value for `Cn1ccc(C(=O)N2CCC[C@H](C(=O)c3ccc(F)cc3)C2)n1` [CBK284333] was 88.3%; that for `Cc1noc(C)c1C(=O)N1CCC[C@H](C(=O)c2ccc(F)cc2)C1` [CBK284334] was 81.7%; that for `CC(C)C(=O)N[C@@H](C)Cn1nc(-c2cccs2)oc1=O` [CBK284335] was 88.3%.
Take `CC(C)CC(=O)N[C@@H](C)Cn1nc(-c2cccs2)oc1=O` [CBK284336]: the viability at 28.5 h, 10 µM turned out to be 82.4%.
Then `C[C@@H](Cn1nc(-c2cccs2)oc1=O)NC(=O)C1CCCC1` [CBK284337], with 86.5%; and `O=C(NC1CCCCC1)[C@@H]1C=CCN1C(=O)c1cccs1` [CBK284338], with 95.8%; and `O=C1Nc2c(cnn2-c2ccc(Cl)cc2)C2=NCCN12` [CBK284341], with 93.1%.
Then `Cc1ccc(-n2ncc3c2NC(=O)N2CCN=C32)cc1` [CBK284345], with 85.5%.
Then `O=C(c1ccccc1F)N1CCC(n2c(=O)oc3ccccc32)CC1` [CBK284346], with 90.1%.
`O=C(c1ccco1)N1CCC(n2c(=O)oc3ccccc32)CC1` [CBK284350]: the viability at 28.5 h, 10 µM was 92.8%.
For `CC(C)NC(=O)C1CC2CCC1CC21NC(=O)c2ccccc2O1` (stereo not drawn) [CBK284353], the viability at 28.5 h, 10 µM stood at 83.5%.
The value for `Cc1cc(C(=O)N2C[C@H]3CC[C@](O)(c4ccc(F)cc4)[C@H]3C2)on1` [CBK284354] was 92.4%.
In the case of `O=C(c1cc(F)cc(F)c1)N1CCC(O)(c2cccnc2F)CC1` [CBK284361], the viability at 28.5 h, 10 µM is 92.7%.
The value for `O=C(Cc1cccc(F)c1)N1CCC(O)(c2cccnc2F)CC1` [CBK284362] was 90.5%; that for `Cc1cc(-c2cc(=O)n(Cc3ccc(F)cc3)nc2C2CC2)on1` [CBK284364] was 98.2%.
Then `Cc1cc(-c2cc(=O)n(Cc3ccccc3)nc2C2CC2)on1` [CBK284365], with 86.2%; and `OC1(c2cccnc2F)CCN(Cc2ccc(F)cc2F)CC1` [CBK284369], with 82.6%; and `OC1(c2cccnc2F)CCN(Cc2ccc(F)c(F)c2)CC1` [CBK284370], with 90%.
Then `OC1(c2cccnc2F)CCN(Cc2cc(F)ccc2F)CC1` [CBK284371], with 83.6%; and `OC1(c2cccnc2F)CCN(Cc2cccc(F)c2)CC1` [CBK284373], with 85.5%.
For the molecule `CCn1cncc1CN1CC2CCCC(O)(c3ccc(C)cc3)C2C1` (stereo not drawn) [CBK284374], the viability at 28.5 h, 10 µM was 90%.
Consider `Cc1cc2ncc3c(n2n1)CC1CCC3N1Cc1ccc(F)c(F)c1` (stereo not drawn) [CBK284378], for which the viability at 28.5 h, 10 µM was determined as 90.9%.
Then `Cc1cc2ncc3c(n2n1)CC1CCC3N1C(=O)CCc1ccco1` (stereo not drawn) [CBK284380], with 78.2%; and `CCC(=O)N1C2CCC1c1cnc3cc(-c4ccco4)nn3c1C2` (stereo not drawn) [CBK284384], with 92.7%.
The value for `O=C(CN1C(=O)N2CCCN=C2c2ccc(Cl)cc21)N1CCCC1` [CBK284387] was 78.7%; that for `O=C(CN1C(=O)N2CCCN=C2c2ccc(Cl)cc21)NC1CC1` [CBK284388] was 89%.
Then `CCCNC(=O)CN1C(=O)N2CCCN=C2c2ccc(Cl)cc21` [CBK284389], with 82.8%; and `CC(C)NC(=O)CN1C(=O)N2CCCN=C2c2ccc(Cl)cc21` [CBK284390], with 96.5%; and `O=C(CN1C(=O)N2CCCN=C2c2ccccc21)NC1CCCCC1` [CBK284396], with 88.8%.
Regarding `O=C(CN1C(=O)N2CCCN=C2c2ccccc21)N1CCCCCC1` [CBK284399], the viability at 28.5 h, 10 µM stood at 96.4%.
Then `CCOC(=O)CN1C(=O)N2CCCN=C2c2ccc(Cl)cc21` [CBK284401], with 77.8%; and `COC(=O)CN1C(=O)N2CCCN=C2c2ccc(Cl)cc21` [CBK284402], with 89.8%; and `CCCNC(=O)CN1C(=O)N2CCCN=C2c2ccccc21` [CBK284405], with 86%.
Then `Cc1nc2c(c(=O)[nH]1)CC[C@@H]1CN(C(=O)c3cccs3)C[C@H]21` [CBK284406], with 88.7%.
The value for `Cc1nc2c(c(=O)[nH]1)CC[C@@H]1CN(C(=O)c3occ4ccccc34)C[C@H]21` [CBK284408] was 101%.
Turning to `Cc1nc2c(c(=O)[nH]1)CC[C@@H]1CN(C(=O)c3ccccc3F)C[C@H]21` [CBK284410], the viability at 28.5 h, 10 µM turned out to be 92.7%.
The value for `Cc1cc2ncc3c(n2n1)CC1CCC3N1Cc1ccc(C)o1` (stereo not drawn) [CBK284412] was 88.9%; that for `Cc1nc2c(c(=O)[nH]1)CC[C@@H]1CN(C(=O)Cc3cccc(F)c3)C[C@H]21` [CBK284413] was 80.4%.
The value for `Cc1cc2ncc3c(n2n1)CC1CCC3N1C(=O)c1cccs1` (stereo not drawn) [CBK284415] was 103%.
Then `Cc1ccc(-n2ncc3c2NC(=O)N2CCCN=C32)cc1` [CBK284416], with 110%; and `Cc1nc2c(c(=O)[nH]1)CC[C@@H]1CN(C(=O)c3cc(F)cc(F)c3)C[C@H]21` [CBK284418], with 101%; and `O=C(CN1C(=O)N2CCCN=C2c2ccccc21)N1CCCC1` [CBK284419], with 88.4%.
As to `O=C(C1CCCC1)N1C2CCC1CC(O)(c1cccnc1F)C2` (stereo not drawn) [CBK284421], the viability at 28.5 h, 10 µM is 88.4%.
The value for `O=C(c1cccc(F)c1)N1C2CCC1CC(O)(c1cccnc1F)C2` (stereo not drawn) [CBK284422] was 104%; that for `Cc1ccc(C(=O)N2C3CCC2CC(O)(c2cccnc2F)C3)o1` (stereo not drawn) [CBK284423] was 104%.
The value for `Cn1nccc1C(=O)C1CCN(C(=O)c2cccs2)CC1` [CBK284424] was 95.1%; that for `Cn1nccc1C(=O)C1CCN(C(=O)c2ccccc2F)CC1` [CBK284425] was 94.5%; that for `Cc1cc(C(=O)N2CCC(C(=O)c3ccnn3C)CC2)sc1C` [CBK284428] was 89.3%.
Then `c1ccc2c3c([nH]c2c1)C12CCN(CC1)C(C1CCOC1)N2CC3` (stereo not drawn) [CBK284433], with 88.2%.
For the molecule `c1ccc2c3c([nH]c2c1)C12CCN(CC1)C(c1ccncc1)N2CC3` (stereo not drawn) [CBK284434], the viability at 28.5 h, 10 µM turned out to be 88.5%.
The value for `Cc1cccc(C2N3CCC4(CC3)c3[nH]c5ccccc5c3CCN24)n1` (stereo not drawn) [CBK284435] was 90.5%; that for `Fc1ccc2[nH]c3c(c2c1)CCN1C(c2cccnc2)N2CCC31CC2` (stereo not drawn) [CBK284436] was 87.6%; that for `Fc1ccc2[nH]c3c(c2c1)CCN1C(c2ccncc2)N2CCC31CC2` (stereo not drawn) [CBK284437] was 78.6%.
The value for `O=C1NC2(CCC(=O)N(Cc3ccccc3)CC2)Oc2ccccc21` (stereo not drawn) [CBK284438] was 91.6%.

The record behind these values is PMC12040169 (PLOS Biology, 2025).
